Measured values: ChEMBL document CHEMBL1275558 (Antimicrob Agents Chemother, 2008)

Key:
[1] = Cytotoxicity against human foreskin fibroblast cell infected with Toxoplasma gondii; type: cell-based; conditions: read-out: TD50 (the source's name)
[2] = Therapeutic index, ration of TD50 for human foreskin fibroblast cell infected with Toxoplasma gondii to ID 50 for Toxoplasma gondii; type: cell-based; conditions: read-out: TI
Toxoplasma gondii = test: Antimicrobial activity against Toxoplasma gondii; type: functional; conditions: read-out: ID50 (the source's name)

| SMILES | CC50 [1] [µM] | selectivity ratio [2] | IC50 (Toxoplasma gondii) [µM] |
| --- | --- | --- | --- |
| O=C1Nc2ccc(F)cc2/C1=C1/Nc2ccccc2/C1=N\O | 61 | 120 | 0.52 |
| Cc1ccc2c(c1)/C(=C1/Nc3ccccc3/C1=N\O)C(=O)N2 | > 500 |  | > 500 |
| O=C1c2cc(F)ccc2-n2c1nc1ccccc1c2=O | 63 | 31500 | 0.002 |
| Cc1ccc2[nH]c(O)c(C3=Nc4ccccc4C3=O)c2c1 | > 500 |  | > 500 |
| O=C1C(c2c(O)[nH]c3ccc(S(=O)(=O)O)cc23)=Nc2ccccc21 | > 500 |  | > 500 |
| O=C1Nc2cc(Cl)c(Br)cc2/C1=C1/Nc2ccccc2/C1=N\O | > 500 | > 210 | 2.4 |
| O=C1c2cc(I)ccc2-n2c1nc1ccccc1c2=O | > 500 |  | 0.02 |
| O=C1c2ccc(Cl)cc2-n2c1nc1ccccc1c2=O | > 500 | > 80 | 6.3 |
| O=C1c2ccc(Br)cc2-n2c1nc1ccccc1c2=O | > 500 | > 160 | 3 |
| O=C1Nc2ccccc2/C1=C1/Nc2ccccc2/C1=N\OCC(O)CO (stereo not given) | > 500 | > 2 | 230 |
| O=C1c2cc(Br)c(Cl)cc2-n2c1nc1ccccc1c2=O | 100 | 59 | 1.7 |
| O=C1Nc2cc(Cl)c(Br)cc2/C1=C1/Nc2ccccc2C1=O | > 500 |  | > 500 |
| CC(=O)N1C(=O)/C(=C2\Nc3ccccc3C2=O)c2ccccc21 | > 500 | > 16 | 30 |
| O=Nc1c(-c2c(O)[nH]c3cc(Cl)ccc23)[nH]c2ccccc12 | 20 | 110 | 0.18 |
| O=C1C(c2c(O)[nH]c3ccc(I)cc23)=Nc2ccccc21 | 240 | 11 | 22 |
| O=C1C(c2c(O)[nH]c3ccc(Br)cc23)=Nc2ccccc21 | > 500 | > 19 | 27 |
| O=C1C(c2c(O)[nH]c3ccc([N+](=O)[O-])cc23)=Nc2ccccc21 | > 500 |  | > 500 |

| SMILES | CC50 [1] [µM] | selectivity ratio [2] | IC50 (Toxoplasma gondii) [µM] |
| --- | --- | --- | --- |
| CC(=O)O/N=C1/C(c2c(O)[nH]c3ccccc23)=Nc2ccccc21 | 22 | 100 | 0.21 |
| O=C1c2cc(Cl)ccc2-n2c1nc1ccccc1c2=O | 360 | 33000 | 0.011 |
| Cc1ccc2c(c1)C(=O)c1nc3ccccc3c(=O)n1-2 | > 500 | > 6100 | 0.082 |
| O=Nc1c(-c2c(O)[nH]c3ccc(I)cc23)[nH]c2ccccc12 | 47 | 5 | 9.7 |
| O=C1C(c2c(O)[nH]c3ccc(Cl)cc23)=Nc2ccccc21 | > 500 | > 8 | 60 |
| O=C1C(c2c(O)[nH]c3ccc(F)cc23)=Nc2ccccc21 | > 500 |  | > 500 |
| O=C1C(c2c(O)[nH]c3cc(Cl)ccc23)=Nc2ccccc21 | > 500 |  | > 500 |
| O=Nc1c(-c2c(O)[nH]c3ccc([N+](=O)[O-])cc23)[nH]c2ccccc12 | 27 | 25 | 1.1 |
| O=C1Nc2ccc(S(=O)(=O)O)cc2/C1=C1/Nc2ccccc2/C1=N\O | > 500 |  | > 500 |
| O=C1Nc2ccc(Cl)cc2/C1=C1/Nc2ccccc2/C1=N\O | 51 | 23 | 2.2 |
| O=C1c2cc(Br)ccc2-n2c1nc1ccccc1c2=O | > 500 | > 160000 | 0.003 |
| CC(=O)O/N=C1/C(=C2/C(=O)Nc3cc(Br)ccc32)Nc2ccccc21 [6-BROMOINDIRUBIN-3'-ACETOXIME] | 46 | 12 | 3.7 |
| O=C1Nc2cc(Br)ccc2/C1=C1/Nc2ccccc2/C1=N\O [6BIO] | 16 |  |  |
| O=C1Nc2ccc(Br)cc2/C1=C1/Nc2ccccc2/C1=N\O [INDIRUBIN 2] | 17 | 9 | 1.8 |
| O=Nc1c(-c2c(O)[nH]c3ccccc23)[nH]c2ccccc12 [INDIRUBIN-3-MONOXIME] | > 500 | > 139 | 3.6 |
| O=C1Nc2ccccc2/C1=C1/Nc2ccccc2C1=O [INDIRUBIN] | > 500 |  | > 500 |
| O=C1c2ccccc2-n2c1nc1ccccc1c2=O [TRYPTANTHRIN] | 62 | 2000 | 0.031 |
